Experimental data: ChEMBL document CHEMBL5380820, “Design and Discovery of Novel Cyclic Peptides as EDPs-EBP Interaction Inhibitors for the Treatment of Liver Fibrosis” (J Med Chem, 2023)
Active and inactive are the calls of the source. No cut-off for these calls is given here. Where a SMILES comes first, the peptide text is derived from it. Bridges are numbered along the chain shown (N, C = ends). [ ]: non-standard residue; d: D form. Aib = CC(C)(N)C(=O)O

Assays:
LX-2 [1] = experiment: Antifibrotic activity against TGF-beta induced human LX2 cells assessed as inhibition of alpha-SMA expression by measuring fluorescence intensity relative to control; type: functional
LX-2 [2] = experiment: Antifibrotic activity against TGF-beta induced human LX2 cells assessed as inhibition of collagen I expression by measuring fluorescence intensity relative to control; type: functional
LX-2 [3] = experiment: Antifibrotic activity against TGF-beta induced human LX2 cells assessed as inhibition of neuraminidase activity using NA fluorogenic substrate by measuring fluorescence intensity relative to control; type: functional
LX-2 [4] = experiment: Antifibrotic activity against TGF-beta induced human LX2 cells assessed as reduction of alpha-SMA expression measured at 10 uM for 24 hrs by measuring fluorescence intensity; type: functional, cell-based
LX-2 [5] = experiment: Antifibrotic activity against TGF-beta induced human LX2 cells assessed as reduction of collagen I expression measured at 10 uM for 24 hrs by measuring fluorescence intensity relative to control; type: functional; design: scale not given: the % may be the effect or the level left
LX2 [6] = experiment: Inhibition of elastin receptor complex elastin binding protein subunit in human LX2 cells assessed as inhibition of EDP induced AMPK phosphorylation treated at 10 uM for 24 hrs by Western blot analysis; type: cell-based
LX-2 [7] = experiment: Antifibrotic activity against TGF-beta induced human LX2 cells assessed as reduction of alpha-SMA expression measured at 10 uM for 24 hrs by measuring fluorescence intensity relative to control; type: functional; design: scale not given: the % may be the effect or the level left
LX2 [8] = experiment: Inhibition of elastin receptor complex elastin binding protein subunit in human LX2 cells assessed as inhibition of EDP induced PI3K phosphorylation treated at 10 uM for 24 hrs by Western blot analysis; type: cell-based
LX2 [9] = experiment: Inhibition of elastin receptor complex elastin binding protein subunit in human LX2 cells assessed as inhibition of EDP induced ERK phosphorylation treated at 10 uM for 24 hrs by Western blot analysis; type: cell-based
Mus musculus [10] = experiment: Antifibrotic activity in CCl4-induced C57BL/6 mouse model of liver fibrosis assessed as reduction in serum ALT level treated at 150 ug/kg, ip daily for 3 weeks; type: functional, organism-based; details: dose 150.0 µg/kg
Mus musculus [11] = experiment: Antifibrotic activity in CCl4-induced C57BL/6 mouse model of liver fibrosis assessed as reduction in serum AST level treated at 150 ug/kg, ip daily for 3 weeks; type: functional, organism-based; details: dose 150.0 µg/kg
LX-2 [12] = experiment: Antifibrotic activity against TGF-beta induced human LX2 cells assessed as reduction of collagen I expression measured at 10 uM for 24 hrs by measuring fluorescence intensity; type: functional, cell-based
LX-2 [13] = experiment: Antifibrotic activity against TGF-beta induced human LX2 cells assessed as inhibition of neuraminidase activity using NA fluorogenic substrate measured at 10 uM for 24 hrs by measuring fluorescence intensity; type: functional, cell-based

Molecule	inhibition (INH) (LX-2 [2]) [%]	inhibition (INH) (LX-2 [3]) [%]	Activity (LX-2 [4])	inhibition (INH) (LX-2 [1]) [%]	also measured
H-VVGSPSAQDAASPL-NH2	17.6	20.7	Active		inhibition (LX-2 [1]): inactive
CC(C)C[C@H](NC(=O)[C@@H]1CCCN1C(=O)[C@H](CO)NC(=O)[C@H](C)NC(=O)[C@H](CCC(=O)O)NC(=O)[C@@H]1CC(=O)N[C@@H](C(C)C)C(=O)N[C@@H](C(C)C)C(=O)NCC(=O)N[C@@H](CO)C(=O)N2CCC[C@H]2C(=O)N[C@@H](CO)C(=O)N[C@@H](C)C(=O)N[C@@H](CCC(N)=O)C(=O)N1)C(=O)O (VVGSPSAQDEASPL-OH; lactam N-9)	36.1	62.2		39	Activity (LX-2 [5]): ~50%; inhibition (LX2 [6]): Active; Activity (LX-2 [7]): ~50%; inhibition (LX2 [8]): Active; inhibition (LX2 [9]): Active
H-AVGSPSAQDEASPL-NH2	6.2	31.2		3.9	
CC(C)C[C@@H]1NC(=O)[C@@H]2CCCN2C(=O)[C@H](CO)NC(=O)C(C)(C)NC(=O)[C@H](CCC(=O)O)NC(=O)[C@H](CC(=O)O)NC(=O)[C@H](CCC(N)=O)NC(=O)[C@H](C)NC(=O)[C@H](CO)NC(=O)[C@@H]2CCCN2C(=O)[C@H](CO)NC(=O)CNC(=O)[C@H](C(C)C)NC(=O)[C@H](C(C)C)NC1=O (cyclo(AQDE[Aib]SPLVVGSPS))		35		5.2	inhibition (LX-2 [2]): inactive
CC(C)C[C@@H]1NC(=O)[C@@H]2CCCN2C(=O)[C@H](CO)NC(=O)CNC(=O)[C@H](C(C)C)NC(=O)[C@H](C(C)C)NC(=O)[C@H](CC(C)C)NC(=O)[C@@H]2CCCN2C(=O)[C@H](CO)NC(=O)[C@H](C)NC(=O)[C@H](CCC(=O)O)NC(=O)[C@H](CC(=O)O)NC(=O)[C@H](CCC(N)=O)NC(=O)[C@H](C)NC1=O (cyclo(AQDEASPLVVGSPL))	9.8	9		1.7	Activity (Mus musculus [10]): Active; Activity (Mus musculus [11]): Active
H-VVGSPSAQDEASPA-NH2	34.6	54.7	Active	38.7	Activity (LX-2 [12]): Active
H-VVGSPSAQAEASPL-NH2	5.2	33.4	Active	7.1	
CC(C)[C@@H]1NC(=O)CNC(=O)[C@@H]2CCCN2C(=O)[C@H](CO)NC(=O)[C@H](C)NC(=O)[C@H](CCC(=O)O)NC(=O)[C@H](CC(=O)O)NC(=O)[C@H](CCC(N)=O)NC(=O)[C@H](C)NC(=O)CNC(=O)[C@@H]2CCCN2C(=O)[C@H](CO)NC(=O)CNC(=O)[C@H](C(C)C)NC1=O (cyclo(AQDEASPGVVGSPG))	8.5	2.6		5.3	
H-VVGSPSAQDEAAPL-NH2	21.7	28.6	Active	11.3	
H-VAGSPSAQDEASPL-NH2	28	60	Active	26.4	Activity (LX-2 [12]): Active
CC(C)[C@@H]1NC(=O)CNC(=O)[C@@H]2CCCN2C(=O)[C@H](CO)NC(=O)[C@H](C)NC(=O)[C@H](CCC(=O)O)NC(=O)[C@H](CC(=O)O)NC(=O)[C@H](CCC(N)=O)NC(=O)[C@H](C)NC(=O)[C@H](CC(=O)O)NC(=O)[C@@H]2CCCN2C(=O)[C@H](CO)NC(=O)CNC(=O)[C@H](C(C)C)NC1=O (cyclo(AQDEASPGVVGSPD))	2.2	49.5		17.6	
H-VVGAPSAQDEASPL-NH2	5.9	26.7	inactive		inhibition (LX-2 [1]): inactive; Activity (LX-2 [13]): inactive; Activity (LX-2 [12]): inactive
H-VVASPSAQDEASPL-NH2	6.9	26.8	inactive		inhibition (LX-2 [1]): inactive; Activity (LX-2 [13]): inactive; Activity (LX-2 [12]): inactive
CC(C)C[C@@H]1NC(=O)[C@H](C(C)C)NC(=O)[C@H](C)NC(=O)[C@@H]2CCCN2C(=O)[C@H](CO)NC(=O)[C@H](C)NC(=O)[C@H](CCC(=O)O)NC(=O)[C@H](CC(=O)O)NC(=O)[C@H](CCC(N)=O)NC(=O)[C@H](C)NC(=O)[C@H](CO)NC(=O)[C@@H]2CCCN2C(=O)[C@H](CO)NC(=O)CNC1=O (cyclo(AQDEASPAVLGSPS))	1.6	42.2		20.7	
H-VVGSPSAQDEASAL-NH2	20.6	23.9	inactive	18.5	Activity (LX-2 [13]): inactive; Activity (LX-2 [12]): inactive
Cc1ccc(=O)n(-c2ccccc2)c1					Activity (Mus musculus [10]): Active; Activity (Mus musculus [11]): Active
H-VVGSPAAQDEASPL-NH2	34.6	55.3		33.4	Activity (LX-2 [12]): Active
CC(C)C[C@@H]1NC(=O)[C@@H]2CCCN2C(=O)[C@H](CO)NC(=O)[C@H](C)NC(=O)[C@H](CCC(=O)O)NC(=O)[C@H](CC(=O)O)NC(=O)[C@H](CCC(N)=O)NC(=O)[C@H](C)NC(=O)[C@H]([C@@H](C)O)NC(=O)[C@@H]2CCCN2C(=O)[C@H](CO)NC(=O)CNC(=O)[C@H](C(C)C)NC(=O)[C@H](C(C)C)NC1=O (cyclo(AQDEASPLVVGSPT))	13.9	27		9.9	
CC(C)C[C@@H]1NC(=O)[C@@H]2CCCN2C(=O)[C@H](CO)NC(=O)[C@H](C)NC(=O)[C@H](CCC(=O)O)NC(=O)[C@H](CC(=O)O)NC(=O)[C@H](CCC(N)=O)NC(=O)[C@H](C)NC(=O)[C@H](CO)NC(=O)[C@@H]2CCCN2C(=O)[C@H](CO)NC(=O)CNC(=O)[C@H](C)NC(=O)[C@H](C(C)C)NC1=O (cyclo(AGSPSAQDEASPLV))	0.9	44		11.5	
CC(C)C[C@@H]1NC(=O)[C@@H]2CCCN2C(=O)[C@H](CO)NC(=O)[C@H](C)NC(=O)[C@H](CCC(=O)O)NC(=O)[C@H](CC(=O)O)NC(=O)[C@H](CCC(N)=O)NC(=O)[C@H](C)NC(=O)[C@H](CCCCN)NC(=O)[C@@H]2CCCN2C(=O)[C@H](CO)NC(=O)CNC(=O)[C@H](C(C)C)NC(=O)[C@H](C(C)C)NC1=O (cyclo(AQDEASPLVVGSPK))	1.7	30		2.8	
H-VVGSASAQDEASPL-NH2	7.5	24.4	Active	3.6	
CC(C)C[C@@H]1NC(=O)[C@@H]2CCCN2C(=O)[C@H](CO)NC(=O)[C@H](C)NC(=O)[C@H](CCC(=O)O)NC(=O)[C@H](CC(=O)O)NC(=O)[C@H](CCC(N)=O)NC(=O)C(C)(C)NC(=O)[C@H](CO)NC(=O)[C@@H]2CCCN2C(=O)[C@H](CO)NC(=O)CNC(=O)[C@H](C(C)C)NC(=O)[C@H](C(C)C)NC1=O (cyclo(ASPLVVGSPS[Aib]QDE))	26.8	75		24.1	Activity (LX-2 [5]): ~50%; inhibition (LX2 [6]): Active; Activity (LX-2 [7]): ~50%; inhibition (LX2 [8]): Active; inhibition (LX2 [9]): Active
H-VVGSPSAADEASPL-NH2	11.8	19.1	inactive	10.6	Activity (LX-2 [13]): inactive; Activity (LX-2 [12]): inactive
CC(C)C[C@@H]1NC(=O)[C@H](C(C)C)NC(=O)[C@H](CC(C)C)NC(=O)[C@@H]2CCCN2C(=O)[C@H](CO)NC(=O)[C@H](C)NC(=O)[C@H](CCC(=O)O)NC(=O)[C@H](CC(=O)O)NC(=O)[C@H](CCC(N)=O)NC(=O)[C@H](C)NC(=O)[C@H](CO)NC(=O)[C@@H]2CCCN2C(=O)[C@H](CO)NC(=O)CNC1=O (cyclo(AQDEASPLVLGSPS))		27.4			inhibition (LX-2 [1]): inactive; inhibition (LX-2 [2]): inactive
CC(C)[C@@H]1NC(=O)CNC(=O)[C@@H]2CCCN2C(=O)[C@H](CO)NC(=O)[C@H](C)NC(=O)[C@H](CCC(=O)O)NC(=O)[C@H](CC(=O)O)NC(=O)[C@H](CCC(N)=O)NC(=O)[C@H](C)NC(=O)[C@H](CS)NC(=O)[C@@H]2CCCN2C(=O)[C@H](CO)NC(=O)CNC(=O)[C@H](C(C)C)NC1=O (cyclo(AQDEASPGVVGSPC))	12.3	36.4		5.3	
